Test results taken from patent publication US11629171B2, “Beta-hairpin peptidomimetics” (POLYPHOR AG, priority 2017, dated 2023).
≈ marks a conversion by molar mass, not a printed value. Where a SMILES comes first, the peptide text is derived from it. Bridges are numbered along the chain shown (N, C = ends). Roman numbers before positions name the chains, in order. [ ]: non-standard residue; d: D form. Pen = CC(C)(S)[C@H](N)C(=O)O; Tle = CC(C)(C)[C@H](N)C(=O)O; NMeV = CN[C@H](C(=O)O)C(C)C; dDab = NCC[C@@H](N)C(=O)O; hSer = N[C@@H](CCO)C(=O)O; Dab = NCC[C@H](N)C(=O)O

Key:
Format in all cases: cell-based
[1] = system: Klebsiella pneumoniae 968733; conditions: 968733
In short: (§1)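 CLSI broth microdilution in cation-adjusted Mueller-Hinton II broth with 0.002% polysorbate 80 (final), inoculum appr. 10^6 CFU/mL, peptides in serial two-fold dilutions. MIC (μg/mL) is the lowest concentration without visible growth after 18-20 h at 35° C.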

[2] = system: Pseudomonas aeruginosa ATCC 27853; conditions: ATCC 27853
In short: as §1

[3] = system: Escherichia coli ATCC 25922; conditions: ATCC 25922
In short: as §1

[4] = system: Klebsiella pneumoniae SSI #3010; conditions: SSI #3010
In short: as §1

[5] = system: Enterobacter cloacae 848840; conditions: 848840
In short: as §1

[6] = system: Acinetobacter baumannii 872842; conditions: 872842
In short: as §1

[7] = system: Acinetobacter baumannii DSM 30008; conditions: DSM 30008
In short: as §1

[8] = system: Escherichia coli 926415; conditions: 926415
In short: as §1

[9] = system: human red blood cells (hRBC); assay: Hemolysis; conditions: red cells of human, 1 h, 200
In short: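 Washed fresh hRBC (20% v/v) were incubated with peptides at 200 μg/mL for 1 h at 37° C with shaking at 300 rpm. Supernatant OD540 was read after centrifugation and dilution, blank-corrected, and expressed as percent of the 2% Triton X-100 (100% lysis) control; PBS with 10% water gave 0%.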

Row | SMILES | MIC [1] [µg/mL] | MIC [2] [µg/mL] | MIC [3] [µg/mL] | MIC [4] [µg/mL] | MIC [5] [µg/mL] | MIC [6] [µg/mL] | MIC [7] [µg/mL] | MIC [8] [µg/mL] | Hemolysis at 200 μg/mL [9] [%]
1 | CC(C)C[C@@H]1NC(=O)[C@@H](CC(C)C)NC(=O)[C@H](CCN)NC(=O)[C@@H](NC(=O)[C@H](CCN)NC(=O)[C@@H](NC(=O)[C@H](CCN)NC(=O)CC[C@@H]2NC(=O)[C@H](CCN)NC(=O)[C@H](Cc3ccc(O)cc3)NC(=O)[C@@H](NC(=O)[C@@H](N)C(C)C)CSSC[C@@H](C(=O)N[C@@H](CO)C(N)=O)NC(=O)[C@H](C(C)C)NC(=O)[C@H](CCO)NC(=O)[C@H](Cc3c[nH]c4ccccc34)NC(=O)[C@H](CCO)NC(=O)[C@@H](CCN)NC2=O)[C@@H](C)O)CCNC(=O)[C@H]([C@@H](C)O)NC(=O)[C@H](CCN)NC(=O)[C@H](CCN)NC1=O [Ex. 48] (I: H-VCY[Dab]E[dDab][hSer]W[hSer]VCS-NH2 / II: [Dab]T[Dab][Dab][Dab][dL]L[Dab][Dab]T; disulfide I:2-I:11; amide I:5-II:N; lactam II:4-II:C) | 8 (≈ 3.33 µM) | 0.125 (≈ 0.0521 µM) | 0.25 (≈ 0.104 µM) | 0.25 (≈ 0.104 µM) | 4 (≈ 1.67 µM) | 0.5 (≈ 0.208 µM) | 0.25 (≈ 0.104 µM) | 1 (≈ 0.417 µM) | <1
2 | CC(=O)N[C@H](C(=O)N[C@H]1CSSC[C@@H](C(=O)N[C@@H](CO)C(N)=O)NC(=O)[C@H](C(C)(C)C)NC(=O)[C@H](CCO)NC(=O)[C@H](Cc2c[nH]c3ccccc23)NC(=O)[C@H](CCO)NC(=O)[C@@H](CCN)NC(=O)[C@H](CCC(=O)N[C@@H](CCN)C(=O)N[C@H](C(=O)N[C@@H](CCN)C(=O)N[C@H]2CCNC(=O)[C@H]([C@@H](C)O)NC(=O)[C@H](CCN)NC(=O)[C@H](CCN)NC(=O)[C@H](CC(C)C)NC(=O)[C@@H](CC(C)C)NC(=O)[C@H](CCN)NC2=O)[C@@H](C)O)NC(=O)[C@H](CCN)NC(=O)[C@H](Cc2ccc(O)cc2)NC1=O)C(C)C [Ex. 49] (I: Ac-VCY[Dab]E[dDab][hSer]W[hSer][Tle]CS-NH2 / II: [Dab]T[Dab][Dab][Dab][dL]L[Dab][Dab]T; disulfide I:2-I:11; amide I:5-II:N; lactam II:4-II:C) | 0.125 (≈ 0.0509 µM) | 0.125 (≈ 0.0509 µM) | 0.125 (≈ 0.0509 µM) | 0.125 (≈ 0.0509 µM) | 0.25 (≈ 0.102 µM) | 0.25 (≈ 0.102 µM) | 0.0625 (≈ 0.0255 µM) | 0.25 (≈ 0.102 µM) | <1
3 | CN[C@H](C(=O)N[C@H]1CSSC[C@@H](C(=O)N[C@@H](CO)C(N)=O)NC(=O)[C@H](C(C)C)NC(=O)[C@H](CCO)NC(=O)[C@H](Cc2c[nH]c3ccccc23)NC(=O)[C@H](CCO)NC(=O)[C@@H](CCN)NC(=O)[C@H](CCC(=O)N[C@@H](CCN)C(=O)N[C@H](C(=O)N[C@@H](CCN)C(=O)N[C@H]2CCNC(=O)[C@H]([C@@H](C)O)NC(=O)[C@H](CCN)NC(=O)[C@H](CCN)NC(=O)[C@H](CC(C)C)NC(=O)[C@@H](CC(C)C)NC(=O)[C@H](CCN)NC2=O)[C@@H](C)O)NC(=O)[C@H](CCN)NC(=O)[C@H](Cc2ccc(O)cc2)NC1=O)C(C)C [Ex. 50] (I: H-[NMeV]CY[Dab]E[dDab][hSer]W[hSer]VCS-NH2 / II: [Dab]T[Dab][Dab][Dab][dL]L[Dab][Dab]T; disulfide I:2-I:11; amide I:5-II:N; lactam II:4-II:C) | 4 (≈ 1.66 µM) | 0.25 (≈ 0.104 µM) | 0.125 (≈ 0.0518 µM) | 0.125 (≈ 0.0518 µM) | 8 (≈ 3.32 µM) | 1 (≈ 0.414 µM) | 0.25 (≈ 0.104 µM) | 0.5 (≈ 0.207 µM) | <1
4 | CN[C@H](C(=O)N[C@H]1CSSC[C@@H](C(=O)N[C@@H](CO)C(N)=O)NC(=O)[C@H](C(C)(C)C)NC(=O)[C@H](CCO)NC(=O)[C@H](Cc2c[nH]c3ccccc23)NC(=O)[C@H](CCO)NC(=O)[C@@H](CCN)NC(=O)[C@H](CCC(=O)N[C@@H](CCN)C(=O)N[C@H](C(=O)N[C@@H](CCN)C(=O)N[C@H]2CCNC(=O)[C@H]([C@@H](C)O)NC(=O)[C@H](CCN)NC(=O)[C@H](CCN)NC(=O)[C@H](CC(C)C)NC(=O)[C@@H](CC(C)C)NC(=O)[C@H](CCN)NC2=O)[C@@H](C)O)NC(=O)[C@H](CCN)NC(=O)[C@H](Cc2ccc(O)cc2)NC1=O)C(C)C [Ex. 51] (I: H-[NMeV]CY[Dab]E[dDab][hSer]W[hSer][Tle]CS-NH2 / II: [Dab]T[Dab][Dab][Dab][dL]L[Dab][Dab]T; disulfide I:2-I:11; amide I:5-II:N; lactam II:4-II:C) | 1 (≈ 0.412 µM) | 0.125 (≈ 0.0515 µM) | 0.25 (≈ 0.103 µM) | 0.125 (≈ 0.0515 µM) | 0.5 (≈ 0.206 µM) | 0.25 (≈ 0.103 µM) | 0.5 (≈ 0.206 µM) | 0.5 (≈ 0.206 µM) | <1
5 | CC(=O)N[C@H](C(=O)N[C@H]1CSSC[C@@H](C(=O)N[C@@H](CO)C(=O)O)NC(=O)[C@H](C(C)(C)C)NC(=O)[C@H](CO)NC(=O)[C@H](Cc2c[nH]c3ccccc23)NC(=O)[C@H]([C@@H](C)O)NC(=O)[C@@H](CCN)NC(=O)[C@H](CCC(=O)N[C@@H](CCN)C(=O)N[C@H](C(=O)N[C@@H](CCN)C(=O)N[C@H]2CCNC(=O)[C@H]([C@@H](C)O)NC(=O)[C@H](CCN)NC(=O)[C@H](CCN)NC(=O)[C@H](CC(C)C)NC(=O)[C@@H](CC(C)C)NC(=O)[C@H](CCN)NC2=O)[C@@H](C)O)NC(=O)[C@H](CCN)NC(=O)[C@H](Cc2ccc(O)cc2)NC1=O)C(C)C [Ex. 52] (I: Ac-VCY[Dab]E[dDab]TWS[Tle]CS-OH / II: [Dab]T[Dab][Dab][Dab][dL]L[Dab][Dab]T; disulfide I:2-I:11; amide I:5-II:N; lactam II:4-II:C) | 4 (≈ 1.64 µM) | 0.25 (≈ 0.102 µM) | 0.25 (≈ 0.102 µM) | 0.25 (≈ 0.102 µM) | 2 (≈ 0.819 µM) | 2 (≈ 0.819 µM) | 1 (≈ 0.41 µM) | 2 (≈ 0.819 µM) | <1

More lines, main results first:

Row | MIC [1] [µg/mL] | MIC [2] [µg/mL] | MIC [3] [µg/mL] | MIC [4] [µg/mL] | MIC [5] [µg/mL] | MIC [6] [µg/mL] | MIC [7] [µg/mL] | MIC [8] [µg/mL] | SMILES | Hemolysis at 200 μg/mL [9] [%]
6 | 4 (≈ 1.67 µM) | 0.125 (≈ 0.0521 µM) | 0.125 (≈ 0.0521 µM) | 0.125 (≈ 0.0521 µM) | 8 (≈ 3.33 µM) | 0.5 (≈ 0.208 µM) | 0.25 (≈ 0.104 µM) | 0.5 (≈ 0.208 µM) | CC(C)C[C@@H]1NC(=O)[C@@H](CC(C)C)NC(=O)[C@H](CCN)NC(=O)[C@@H](NC(=O)[C@H](CCN)NC(=O)[C@@H](NC(=O)[C@H](CCN)NC(=O)CC[C@@H]2NC(=O)[C@H](CCN)NC(=O)[C@H](Cc3ccc(O)cc3)NC(=O)[C@@H](NC(=O)[C@@H](N)C(C)C)CSSC[C@@H](C(=O)N[C@@H](CO)C(=O)O)NC(=O)[C@H](C(C)(C)C)NC(=O)[C@H](CO)NC(=O)[C@H](Cc3c[nH]c4ccccc34)NC(=O)[C@H]([C@@H](C)O)NC(=O)[C@@H](CCN)NC2=O)[C@@H](C)O)CCNC(=O)[C@H]([C@@H](C)O)NC(=O)[C@H](CCN)NC(=O)[C@H](CCN)NC1=O [Ex. 53] (I: H-VCY[Dab]E[dDab]TWS[Tle]CS-OH / II: [Dab]T[Dab][Dab][Dab][dL]L[Dab][Dab]T; disulfide I:2-I:11; amide I:5-II:N; lactam II:4-II:C) | <1
7 | 4 (≈ 1.65 µM) | 0.25 (≈ 0.103 µM) | 0.0625 (≈ 0.0257 µM) | 0.25 (≈ 0.103 µM) | 4 (≈ 1.65 µM) | 0.5 (≈ 0.206 µM) | 0.25 (≈ 0.103 µM) | 0.5 (≈ 0.206 µM) | CC(C)C[C@@H]1NC(=O)[C@@H](CC(C)C)NC(=O)[C@H](CCN)NC(=O)[C@@H](NC(=O)[C@H](CCN)NC(=O)[C@@H](NC(=O)[C@H](CCN)NC(=O)CC[C@@H]2NC(=O)[C@H](CCN)NC(=O)[C@H](Cc3ccc(O)cc3)NC(=O)[C@@H](NC(=O)[C@@H](N)C(C)C)C(C)(C)SSC[C@@H](C(=O)N[C@@H](CO)C(=O)O)NC(=O)[C@H](C(C)(C)C)NC(=O)[C@H](CO)NC(=O)[C@H](Cc3c[nH]c4ccccc34)NC(=O)[C@H]([C@@H](C)O)NC(=O)[C@@H](CCN)NC2=O)[C@@H](C)O)CCNC(=O)[C@H]([C@@H](C)O)NC(=O)[C@H](CCN)NC(=O)[C@H](CCN)NC1=O [Ex. 54] (I: H-V[Pen]Y[Dab]E[dDab]TWS[Tle]CS-OH / II: [Dab]T[Dab][Dab][Dab][dL]L[Dab][Dab]T; disulfide I:2-I:11; amide I:5-II:N; lactam II:4-II:C) | <1
8 | 8 (≈ 3.34 µM) | 0.25 (≈ 0.104 µM) | 0.25 (≈ 0.104 µM) | 0.5 (≈ 0.209 µM) | 8 (≈ 3.34 µM) | 1 (≈ 0.418 µM) | 0.5 (≈ 0.209 µM) | 1 (≈ 0.418 µM) | CC(C)C[C@@H]1NC(=O)[C@@H](CC(C)C)NC(=O)[C@H](CCN)NC(=O)[C@@H](NC(=O)[C@H](CCN)NC(=O)[C@@H](NC(=O)[C@H](CCN)NC(=O)CC[C@@H]2NC(=O)[C@H](CCN)NC(=O)[C@H](Cc3ccc(O)cc3)NC(=O)[C@@H](NC(=O)[C@@H](N)C(C)C)CC(=O)NCC[C@@H](C(=O)N[C@@H](CO)C(=O)O)NC(=O)[C@H](C(C)(C)C)NC(=O)[C@H](CO)NC(=O)[C@H](Cc3c[nH]c4ccccc34)NC(=O)[C@H]([C@@H](C)O)NC(=O)[C@@H](CCN)NC2=O)[C@@H](C)O)CCNC(=O)[C@H]([C@@H](C)O)NC(=O)[C@H](CCN)NC(=O)[C@H](CCN)NC1=O [Ex. 55] (I: H-VDY[Dab]E[dDab]TWS[Tle][Dab]S-OH / II: [Dab]T[Dab][Dab][Dab][dL]L[Dab][Dab]T; lactam I:2-I:11, II:4-II:C; amide I:5-II:N) | 2
